The record followed here is US7868135B2, “Compositions of lipopeptide antibiotic derivatives and methods of use thereof” (priority 2003, dated 2011).

The structures appear in SMILES notation.

The first test relates to Staphylococcus aureus (MSSA). The conditions noted are these: 24 h. On the procedure: (“Approved Standard M7-A3”).
The antimicrobial lipopeptide derivatives described herein were tested for antimicrobial activity against Gram-positive bacteria as follows. The minimum inhibitory concentrations (MIC) of the antimicrobial lipopeptide derivatives of the invention were determined using NCCLS guidelines M7-A6 (2003) with a slight modification in that doubling serial dilutions were used to dilute the test compounds. The broth phase microdilution method was used. Isolated colonies of Staphylococcus aureus (MSSA) from an 18-24 hour blood agar plate cultures were used to inoculate cation adjusted Mueller-Hinton broth (CAMHB) supplemented with 0.625 mM calcium. […] A negative control containing media alone and a positive growth control containing bacteria with media alone were also included. MICs were determined after incubating the plates at about 37° C. for 24 hours. […] In Tables 1 to 16, R is the core cyclic peptide of amphomycin or aspartocin, which can be in the form of a β-isomer, an anhydro, a dianhydro, or any combination thereof. […] Furthermore, a person of skill in the art will appreciate that all the pounds, or groups of compounds, derived from the various combinations of and substituents shown in Tables 1 to 16, are disclosed by the present the same extent as if each compound or group of compounds was set forth individually.
As to `CCCCCCCCCCCCCCC(=O)NC(CC(=O)O)C(=O)NC1C(=O)N2CCCCC2C(=O)NC(C(C)C(=O)O)C(=O)NC(CC(=O)O)C(=O)NCC(=O)NC(CC(=O)O)C(=O)NCC(=O)NC(C(C)NC(=O)[C@@H](N)[C@@H](C)CC)C(=O)NC(C(C)C)C(=O)N2CCCC2C(=O)NC1C` (stereo partly shown) [Compound 36, C15-Amphomycin-9-Ile], the MIC (commonly the least concentration at which growth counts as inhibited) was in the range of 8 to 16 µg/mL.
Still for that read-out and setting: the value for `CCCCCCCCCCCCCCC(=O)NC(CC(=O)O)C(=O)NC1C(=O)N2CCCCC2C(=O)NC(C(C)C(=O)O)C(=O)NC(CC(=O)O)C(=O)NCC(=O)NC(CC(=O)O)C(=O)NCC(=O)NC(C(C)NC(=O)CNC(=O)[C@@H](N)C(C)C)C(=O)NC(C(C)C)C(=O)N2CCCC2C(=O)NC1C` (stereo partly shown) [Compound 37, C15-Amphomycin-9-Gly-Val] was 2 to 4 µg/mL; that for `CCCCCCCCCCCCCCC(=O)NC(CC(=O)O)C(=O)NC1C(=O)N2CCCCC2C(=O)NC(C(C)C(=O)O)C(=O)NC(CC(=O)O)C(=O)NCC(=O)NC(CC(=O)O)C(=O)NCC(=O)NC(C(C)NC(=O)[C@@H](N)CC(N)=O)C(=O)NC(C(C)C)C(=O)N2CCCC2C(=O)NC1C` (stereo partly shown) [Compound 38, C15-Amphomycin-9-Asn] was 2 µg/mL.
On the same count and under the same terms, the value for `CCCCCCCCCCCCCCC(=O)NC(CC(=O)O)C(=O)NC1C(=O)N2CCCCC2C(=O)NC(C(C)C(=O)O)C(=O)NC(CC(=O)O)C(=O)NCC(=O)NC(CC(=O)O)C(=O)NCC(=O)NC(C(C)NC(=O)[C@@H](N)Cc2ccc(O)cc2)C(=O)NC(C(C)C)C(=O)N2CCCC2C(=O)NC1C` (stereo partly shown) [Compound 39, C15-Amphomycin-9-Tyr] was 32 to 64 µg/mL.
Same read-out and setting: the value for `CCCCCCCCCCCCCCC(=O)NC(CC(=O)O)C(=O)NC1C(=O)N2CCCCC2C(=O)NC(C(C)C(=O)O)C(=O)NC(CC(=O)O)C(=O)NCC(=O)NC(CC(=O)O)C(=O)NCC(=O)NC(C(C)NC(=O)[C@@H](N)Cc2c[nH]c3ccccc23)C(=O)NC(C(C)C)C(=O)N2CCCC2C(=O)NC1C` (stereo partly shown) [Compound 40, C15-Amphomycin-9-Trp] was 32 to 64 µg/mL.
As to `CCCCCCCCCCCCCCC(=O)NC(CC(=O)O)C(=O)NC1C(=O)N2CCCCC2C(=O)NC(C(C)C(=O)O)C(=O)NC(CC(=O)O)C(=O)NCC(=O)NC(CC(=O)O)C(=O)NCC(=O)NC(C(C)NC(=O)[C@@H](N)c2ccccc2)C(=O)NC(C(C)C)C(=O)N2CCCC2C(=O)NC1C` (stereo partly shown) [Compound 41, C15-Amphomycin-9-Phg], the MIC was 4 µg/mL.
Still for that read-out and setting: the value for `CCCCCCCCCCCCCCC(=O)NC(CC(=O)O)C(=O)NC1C(=O)N2CCCCC2C(=O)NC(C(C)C(=O)O)C(=O)NC(CC(=O)O)C(=O)NCC(=O)NC(CC(=O)O)C(=O)NCC(=O)NC(C(C)NC(=O)CNC(=O)CN)C(=O)NC(C(C)C)C(=O)N2CCCC2C(=O)NC1C` (stereo not shown) [Compound 42, C15-Amphomycin-9-Gly-Gly] was 1 µg/mL; that for `CCCCCCCCCCCCCCC(=O)NC(CC(=O)O)C(=O)NC1C(=O)N2CCCCC2C(=O)NC(C(C)C(=O)O)C(=O)NC(CC(=O)O)C(=O)NCC(=O)NC(CC(=O)O)C(=O)NCC(=O)NC(C(C)NC(=O)[C@@H](N)CCC(N)=O)C(=O)NC(C(C)C)C(=O)N2CCCC2C(=O)NC1C` (stereo partly shown) [Compound 43, C15-Amphomycin-9-Gln] was 8 to 16 µg/mL.
On the same count and under the same terms, as for `CCCCCCCCCCCCCCC(=O)NC(CC(=O)O)C(=O)NC1C(=O)N2CCCCC2C(=O)NC(C(C)C(=O)O)C(=O)NC(CC(=O)O)C(=O)NCC(=O)NC(CC(=O)O)C(=O)NCC(=O)NC(C(C)NC(=O)[C@@H](N)[C@@H](C)O)C(=O)NC(C(C)C)C(=O)N2CCCC2C(=O)NC1C` (stereo partly shown) [Compound 44, C15-Amphomycin-9-Thr], the figure is 2 to 4 µg/mL; as for `CCCCCCCCCCCCCCC(=O)NC(CC(=O)O)C(=O)NC1C(=O)N2CCCCC2C(=O)NC(C(C)C(=O)O)C(=O)NC(CC(=O)O)C(=O)NCC(=O)NC(CC(=O)O)C(=O)NCC(=O)NC(C(C)NC(=O)CNC(=O)[C@@H](N)CC(C)C)C(=O)NC(C(C)C)C(=O)N2CCCC2C(=O)NC1C` (stereo partly shown) [Compound 46, C15-Amphomycin-9-Gly-Leu], 1 µg/mL; as for `CCCCCCCCCCCCCCC(=O)NC(CC(=O)O)C(=O)NC1C(=O)N2CCCCC2C(=O)NC(C(C)C(=O)O)C(=O)NC(CC(=O)O)C(=O)NCC(=O)NC(CC(=O)O)C(=O)NCC(=O)NC(C(C)NC(=O)CNC(=O)CCC(=O)O)C(=O)NC(C(C)C)C(=O)N2CCCC2C(=O)NC1C` (stereo not shown) [Compound 48, C15-Amphomycin-9-Gly-Suc], 8 µg/mL.
With `CCCCCCCCCCCCCCC(=O)NC(CC(=O)O)C(=O)NC1C(=O)N2CCCCC2C(=O)NC(C(C)C(=O)O)C(=O)NC(CC(=O)O)C(=O)NCC(=O)NC(CC(=O)O)C(=O)NCC(=O)NC(C(C)NC(=O)CNC(C)=O)C(=O)NC(C(C)C)C(=O)N2CCCC2C(=O)NC1C` (stereo not shown) [Compound 49, C15-Amphomycin-9-Gly-Ac], the MIC was 4 µg/mL.
As for `CCCCCCCCCCCCCCC(=O)NC(CC(=O)O)C(=O)NC1C(=O)N2CCCCC2C(=O)NC(C(C)C(=O)O)C(=O)NC(CC(=O)O)C(=O)NCC(=O)NC(CC(=O)O)C(=O)NCC(=O)NC(C(C)NC(=O)[C@@H](N)Cc2ccc(OC)cc2)C(=O)NC(C(C)C)C(=O)N2CCCC2C(=O)NC1C` (stereo partly shown) [Compound 52, C15-Amphomycin-9-Tyr(Me)], the MIC was found to be 16 µg/mL.
Same read-out and setting: as for `CCCCCCCCCCCCCCC(=O)NC(CC(=O)O)C(=O)NC1C(=O)N2CCCCC2C(=O)NC(C(C)C(=O)O)C(=O)NC(CC(=O)O)C(=O)NCC(=O)NC(CC(=O)O)C(=O)NCC(=O)NC(C(C)NC(=O)[C@@H](C)N)C(=O)NC(C(C)C)C(=O)N2CCCC2C(=O)NC1C` (stereo partly drawn) [Compound 66, C15-Amphomycin-9-(D-Ala)], the figure is 4 µg/mL.
On the same count and under the same terms, the value for `CCCCCCCCCCCCCCC(=O)NC(CC(=O)O)C(=O)NC1C(=O)N2CCCCC2C(=O)NC(C(C)C(=O)O)C(=O)NC(CC(=O)O)C(=O)NCC(=O)NC(CC(=O)O)C(=O)NCC(=O)NC(C(C)NC(=O)CNC(=O)CCCN)C(=O)NC(C(C)C)C(=O)N2CCCC2C(=O)NC1C` (stereo not shown) [Compound 68, C15-Amphomycin-9-Gly-GABA] was 2 µg/mL; that for `CCCCCCCCCCCCCCC(=O)NC(CC(=O)O)C(=O)NC1C(=O)N2CCCCC2C(=O)NC(C(C)C(=O)O)C(=O)NC(CC(=O)O)C(=O)NCC(=O)NC(CC(=O)O)C(=O)NCC(=O)NC(C(C)NC(=O)CCNC(=O)CCCCCN)C(=O)NC(C(C)C)C(=O)N2CCCC2C(=O)NC1C` (stereo not drawn) [Compound 70, C15-Amphomycin-9-(β-Ala)-Ahx] was 2 µg/mL; that for `CCCCCCCCCCCCCCC(=O)NC(CC(=O)O)C(=O)NC1C(=O)N2CCCCC2C(=O)NC(C(C)C(=O)O)C(=O)NC(CC(=O)O)C(=O)NCC(=O)NC(CC(=O)O)C(=O)NCC(=O)NC(C(C)NC(=O)CCCNC(=O)[C@@H](N)C(C)C)C(=O)NC(C(C)C)C(=O)N2CCCC2C(=O)NC1C` (stereo partly shown) [Compound 71, C15-Amphomycin-9-GABA-Val] was 4 µg/mL.

Still in this test, the particulars now being: S. aureus (MSSA), CAMHB supplemented with 0.625 mM calcium, 24 hours at about 37° C.; a range = compound tested multiple times.
For `CCCCCCCCCCCCC(=O)NC(CC(=O)O)C(=O)NC1C(=O)N2CCCCC2C(=O)NC(C(C)C(=O)O)C(=O)NC(CC(=O)O)C(=O)NCC(=O)NC(CC(=O)O)C(=O)NCC(=O)NC(C(C)NC(=O)CCCN)C(=O)NC(C(C)C)C(=O)N2CCCC2C(=O)NC1C` (stereo not shown) [Compound 50, C13-Amphomycin-9-GABA], the MIC is 50/1 μg/mL.
The same measure, in the same setting: as for `CCCCCCCCCCCCC(=O)NC(CC(=O)O)C(=O)NC1C(=O)N2CCCCC2C(=O)NC(C(C)C(=O)O)C(=O)NC(CC(=O)O)C(=O)NCC(=O)NC(CC(=O)O)C(=O)NCC(=O)NC(C(C)NC(=O)CN)C(=O)NC(C(C)C)C(=O)N2CCCC2C(=O)NC1C` (stereo not shown) [Compound 53, C13-Amphomycin-9-Gly], the figure is 53/8 μg/mL; as for `CCCCCCCCCCCCC(=O)NC(CC(=O)O)C(=O)NC1C(=O)N2CCCCC2C(=O)NC(C(C)C(=O)O)C(=O)NC(CC(=O)O)C(=O)NCC(=O)NC(CC(=O)O)C(=O)NCC(=O)NC(C(C)NC(=O)CCN)C(=O)NC(C(C)C)C(=O)N2CCCC2C(=O)NC1C` (stereo not drawn) [Compound 54, C13-Amphomycin-9-(β-Ala)], 54/2-4 μg/mL.
Regarding `CCCCCCCCCCCCC(=O)NC(CC(=O)O)C(=O)NC1C(=O)N2CCCCC2C(=O)NC(C(C)C(=O)O)C(=O)NC(CC(=O)O)C(=O)NCC(=O)NC(CC(=O)O)C(=O)NCC(=O)NC(C(C)NC(=O)CNC)C(=O)NC(C(C)C)C(=O)N2CCCC2C(=O)NC1C` (stereo not shown) [Compound 55, C13-Amphomycin-9-Sar], the MIC is listed as 55/1 μg/mL.
Still for that read-out and setting: the value for `CCCCCCCCCCCC(=O)NC(CC(=O)O)C(=O)NC1C(=O)N2CCCCC2C(=O)NC(C(C)C(=O)O)C(=O)NC(CC(=O)O)C(=O)NCC(=O)NC(CC(=O)O)C(=O)NCC(=O)NC(C(C)NC(=O)CCCN)C(=O)NC(C(C)C)C(=O)N2CCCC2C(=O)NC1C` (stereo not shown) [Compound 57, C12-Amphomycin-9-GABA] was 57/16 μg/mL; that for `CCCCCCCCCCCC(=O)NC(CC(=O)O)C(=O)NC1C(=O)N2CCCCC2C(=O)NC(C(C)C(=O)O)C(=O)NC(CC(=O)O)C(=O)NCC(=O)NC(CC(=O)O)C(=O)NCC(=O)NC(C(C)NC(=O)CN)C(=O)NC(C(C)C)C(=O)N2CCCC2C(=O)NC1C` (stereo not shown) [Compound 58, C12-Amphomycin-9-Gly] was 58/4-8 μg/mL; that for `CCCCCCCCCCCCCC(=O)NC(CC(=O)O)C(=O)NC1C(=O)N2CCCCC2C(=O)NC(C(C)C(=O)O)C(=O)NC(CC(=O)O)C(=O)NCC(=O)NC(CC(=O)O)C(=O)NCC(=O)NC(C(C)NC(=O)CCN)C(=O)NC(C(C)C)C(=O)N2CCCC2C(=O)NC1C` (stereo not drawn) [Compound 59, C14-Amphomycin-9-(β-Ala)] was 59/0.5-1 μg/mL.
Same read-out and setting: as for `CCCCCCCCCCCCCC(=O)NC(CC(=O)O)C(=O)NC1C(=O)N2CCCCC2C(=O)NC(C(C)C(=O)O)C(=O)NC(CC(=O)O)C(=O)NCC(=O)NC(CC(=O)O)C(=O)NCC(=O)NC(C(C)NC(=O)CCCN)C(=O)NC(C(C)C)C(=O)N2CCCC2C(=O)NC1C` (stereo not shown) [Compound 62, C14-Amphomycin-9-GABA], the figure is 62/0.5-1 μg/mL.
